Paper PMC6384781, “Design, Synthesis, Docking Studies and Monoamine Oxidase Inhibition of a Small Library of 1-acetyl- and 1-thiocarbamoyl-3,5-diphenyl-4,5-dihydro-(1H)-pyrazoles” (Molecules, 2019)

Assays:
hMAO-A = molecular target: T1, hMAO-A (Homo sapiens, UniProt P21397); assay: hMAO-A inhibition, Amplex Red fluorometric assay with kynuramine substrate; type: biochemical; conditions: recombinant hMAO-A, kynuramine 50 µM, mean ± SD of triplicate, max tested 100 µM
T1 construct: purchased Sigma-Aldrich; host or cells: insect cells (microsomes)
T1 sequence (P21397 1-527): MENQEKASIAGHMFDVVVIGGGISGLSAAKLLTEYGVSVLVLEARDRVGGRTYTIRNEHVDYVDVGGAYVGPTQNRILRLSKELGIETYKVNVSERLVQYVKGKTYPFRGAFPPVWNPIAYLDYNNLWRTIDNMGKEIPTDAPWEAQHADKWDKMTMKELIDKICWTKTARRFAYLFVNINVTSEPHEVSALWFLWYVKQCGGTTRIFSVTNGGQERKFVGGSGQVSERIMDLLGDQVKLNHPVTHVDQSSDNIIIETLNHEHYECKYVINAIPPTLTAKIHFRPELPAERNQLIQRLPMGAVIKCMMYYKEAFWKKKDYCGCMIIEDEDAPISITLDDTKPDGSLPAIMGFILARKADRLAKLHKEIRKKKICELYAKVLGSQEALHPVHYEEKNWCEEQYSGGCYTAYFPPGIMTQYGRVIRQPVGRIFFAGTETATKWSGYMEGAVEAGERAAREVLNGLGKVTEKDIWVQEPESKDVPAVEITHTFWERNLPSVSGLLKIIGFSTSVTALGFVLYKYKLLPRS
Protocol: (§1) The synthesized compounds P1–P18 were evaluated as hMAO inhibitors using the recombinant hMAOs as enzyme sources and kynuramine as substrate. A fluorometric method based on the Amplex® Red reagent (λex = 560 nm; λem = 590 nm) was used to measure hMAO activity. In this horseradish peroxidase-linked assay, Amplex® Red reacts with hydrogen peroxide that is produced by the MAO catalytic cycle to yield a fluorescent product, resorufin [28]. By thus recording the MAO-catalyzed formation of hydrogen peroxide in the presence of different concentrations of a test inhibitor, sigmoidal plots of enzyme activity versus the logarithm of inhibitor concentration were constructed from which IC50 values were estimated (GraphPad Prism 5). All IC50 values were measured in triplicate and are expressed as the mean ± standard deviation (SD). The inhibitory activities of compounds P1–P18 are summarized in Table 1 along with selectivity index (SI) values which are the ratio of IC50(hMAO-A)/IC50(hMAO-B). SI < 1 indicates selectivity for MAO-A, whereas SI > 1 indicates selectivity for the MAO-B isoform.
(§2) Microsomes from insect cells expressing recombinant hMAO-A or hMAO-B (5 mg protein/mL) served as enzyme sources, and were pre-aliquoted and stored at −70 °C. All enzymatic reactions were carried out to a final volume of 200 µL in black 96-well microtiter plates (Corning). Potassium phosphate buffer (100 mM, pH 7.4, made isotonic with KCl) served as reaction solvent. The reactions contained kynuramine (50 µM), various concentrations of the test inhibitor (0.003–100 μM), horseradish peroxidase (1 unit/mL) and Amplex® Red (200 µM). Stock solutions of the test inhibitors were prepared in DMSO and added to the reactions to yield a final concentration of 4% (v/v) DMSO. The reactions were initiated with the addition of hMAO-A (0.0075 mg protein/mL) or hMAO-B (0.015 mg protein/mL), and incubated at 37 °C for 20 min in a convection oven. At endpoint, the reactions were terminated with the addition of 10 μL pargyline (20 mM) and 10 μL (R)-deprenyl (5 mM) for hMAO-A and hMAO-B, respectively. The concentrations of resorufin in the reactions were determined by fluorescence spectrophotometry (λex = 560 nm, λem = 590 nm). Resorufin was quantitated with a linear calibration curve, which was constructed from standard solutions containing hydrogen peroxide (0.05–1.6 µM). Each standard was prepared to a final volume of 200 μL in potassium phosphate buffer and also contained horseradish peroxidase (1 unit/mL), Amplex® Red (200 µM), 4% DMSO as co-solvent, 10 μL pargyline (20 mM) for hMAO-A and 10 μL (R)-deprenyl (5 mM) for hMAO-B. The IC50 values were determined by constructing sigmoidal curves of MAO catalytic activity versus the logarithm of inhibitor concentration. For this purpose, the one site competition model incorporated into the Prism 5 software package (GraphPad, San Diego, CA, USA) was used. All experiments were carried out in triplicate and the IC50 values are expressed as mean ± standard deviation (SD).

hMAO-B = molecular target: T2, hMAO-B (Homo sapiens, UniProt P27338); assay: hMAO-B inhibition, Amplex Red fluorometric assay with kynuramine substrate; type: biochemical; conditions: recombinant hMAO-B, kynuramine 50 µM, mean ± SD of triplicate, max tested 100 µM
T2 construct: purchased Sigma-Aldrich; host or cells: insect cells (microsomes)
T2 sequence (P27338 1-520): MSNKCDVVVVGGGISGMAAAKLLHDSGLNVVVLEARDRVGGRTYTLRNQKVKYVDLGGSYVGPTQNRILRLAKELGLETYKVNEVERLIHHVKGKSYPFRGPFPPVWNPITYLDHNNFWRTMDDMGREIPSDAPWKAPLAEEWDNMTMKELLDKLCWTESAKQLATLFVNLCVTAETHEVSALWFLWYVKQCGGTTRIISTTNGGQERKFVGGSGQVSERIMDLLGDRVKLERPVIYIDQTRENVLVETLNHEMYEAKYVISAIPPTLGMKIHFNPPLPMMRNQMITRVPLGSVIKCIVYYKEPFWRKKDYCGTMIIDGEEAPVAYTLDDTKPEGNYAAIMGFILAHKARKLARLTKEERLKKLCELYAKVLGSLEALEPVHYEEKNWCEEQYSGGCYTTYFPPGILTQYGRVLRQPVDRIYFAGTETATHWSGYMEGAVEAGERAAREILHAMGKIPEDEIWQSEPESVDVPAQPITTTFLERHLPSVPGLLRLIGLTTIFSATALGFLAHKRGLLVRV
Protocol: as §1, §2

- IC50 (hMAO-A): > 100 µM
- IC50 hMAO-A (hMAO-A): devoid of inhibition activity
- IC50 (hMAO-B): > 100 µM
- IC50 hMAO-B (hMAO-B): devoid of inhibition activity
- melting point: 78 to 80 °C
SMILES: CC(=O)N1N=C(c2ccc(OCC=C(C)C)cc2)CC1c1cccc2ccccc12 (centres unmarked) [Compound P18, 1-(3-(4-((3-methylbut-2-en-1-yl)oxy)phenyl)-5-(naphthalen-1-yl)-4,5-dihydro-1H-pyrazol-1-yl)ethan-1-one]
